The record followed here is patent US20260097047A1, “Small molecule inhibitors of the ribosome biogenesis factor NVL2” (Board of Regents, The University of Texas System, priority 2023, published 2026).

“Also recorded” adds a separate entry of the source.

In assay [1] the test system is p53 and p21 in HCT116 NVL^R403W tumors. Briefly: Pharmacodynamic study: p53 and p21 in HCT116 NVL^R403W xenograft tumors. In kind it is in vivo, mouse. The conditions noted are these: 35 mg/kg IP, opposing flank of same mice. The protocol: Plasma exposure was dose-dependent up to 35 mg/kg (IP injection) reaching a maximum concentration at 17.86 μM. These levels exceed the anti-proliferative IC99 of MM927 in cells expressing either human or mouse NVL. In a subsequent pharmacodynamic (PD) study, we asked if we could assess on-target NVL inhibition via a subsequent p53 and/or p21 induction in tumor xenografts in mice treated with MM927. We implanted HCT116 NVL^WT and NVL^R403W cells subcutaneously on either flank of the mice and evaluated the levels of p53 and p21 in either tumor at various time points after IP administration of 35 mg/kg of MM927.
Pharmacodynamic study: Five million parental HCT116 cells or HCT116 NVL^R403W in a volume of 0.1 mL were implanted using a subcutaneous injection in the left and right side of four-to-eight-week-old male and female NSG mice, respectively. Tumor volumes were measured every 2 to 4 days with calipers. When the tumor diameter reached 0.5 cm in diameter, mice were dosed with 35 mg/kg MM927 or vehicle formulated as 10% DMSO/10% Kolliphor EL/10% Solutal/70% D5W and administered via the intraperitoneal route. At each time point (0, 3, 6, 12, 24 hours post dose), tumors were harvested and flash frozen for Western blot analysis for p53 and p21 as described.

The next assay deals with p53 and p21. The assay can be described thus: p53 and p21 protein levels in HCT116 cells. In kind it is cell-based, human. The text has this:
Inhibition of 60S ribosome biogenesis is known to induce the stability and upregulation of p53, which could serve as a potential pharmacodynamics marker for MM017 in HCT116 cells. […] We used PRISM (Broad Institute) to evaluate the selectivity of MM017 across 902 cancer cell lines and then correlated this selectivity to 1,215 clinical and pre-clinical compounds in the PRISM database. […] These observations indicate that oxaliplatin and carmofur, like MM017, target ribosome biogenesis.

The next assay deals with HCT116 NVL^H304R cells. Briefly: Cell viability in HCT116 NVL^H304R knock-in cells. It counts as cell-based. The conditions noted are these: Homo sapiens, HCT-116. The text has this:
From whole exome sequencing, we identified variants that were acquired during IAA-induced mutagenesis with the hypothesis that genes related to resistance will be mutated in multiple clones. Two genes contained acquired variants in at least 3 of the 15 selected clones: TERT, mutated in 3 of 15 clones, and NVL, mutated in all 15 clones. […] In sum, 57 out of 59 unique clones harbored NVL mutations. The majority of mutations clustered within the D1 AAA+ ATPase domain and frequently affecting the same codons. […]
HCT116 cells were transfected with TransIT-LT (Mirus #MIR2304) according to manufacturer's protocol with a guide RNA (either mock or NVL targeting) in the px330 vector (Addgene, #42230), and 10 nM single stranded deoxyoligonucleotide encoding a specific NVL mutation (see below for specific sequences). […] The resulting cells were evaluated by cresyl violet staining or collected and the relevant NVL mutations were analyzed by either amplicon or sanger sequencing.
Cell viability assay: In 96-well assay plates (Corning #2903), 2,000 cells were plated per well in 100 μL of medium and allowed to adhere overnight. […] Luminescence (CellTiter-Glo) was recorded using a Synergy 2 microplate reader (BioTek). […]

In another assay the test system is iHCT116 cells. The assay can be described thus: Growth inhibition of engineered iHCT116 cells. In kind it is cell-based. The settings on record: Homo sapiens. The text has this:
We recently described an isogenic forward genetic system to rapidly find mutations conferring resistance to compounds with anti-proliferative activity (32). This system uses an engineered colorectal cancer HCT116 cell line (iHCT116) in which the addition of indole acetic acid (IAA) initiates a ubiquitin-mediated degradation of the DNA mismatch repair protein MLH1, thereby providing a mechanism to temporarily increase mutation rates. We applied this strategy to MM017, a dibenzothiazepinone identified in a high-throughput small molecule screen for HCT116 cytotoxicity. […] We exposed barcoded iHCT116 cells, that had previously been cultured either with (Mutagenesis-on) or without IAA (Mutagenesis-off), to increasingly lethal doses of MM017.

The test system of assay [2] is 60S, 80S and 40S ribosomal subunits. Briefly: Polysome profiling. It counts as cell-based, human. The text has this:
NVL2 in yeast is essential for 60S ribosomal maturation, and therefore, we hypothesized that MM017 might decrease 60S ribosome synthesis. To test this hypothesis, we subjected either parental or NVL mutant cells treated with MM017 for different time points to polysome profiling. Polysome profiling uses a sucrose gradient to fractionate the complete ribosome (80S) from its components, the large (60S) and small (40S) subunit. […] Since the 80S is a complex of the 40S and 60S ribosomes, fewer 60S ribosomes are expected to result in increased free 40S subunits. All of these changes are the result of binding NVL2 since they were not present in the NVL2^R403W mutant cells. Taken together, these observations indicate that MM017 inhibits NVL2 leading to reduced 60S ribosome.
We next assessed the impact of disrupting NVL on the distribution of ribosomal species using polysome profiling. Addition of Ph-IAA to induce NVL degradation in NVL^AID/AID cells led to a time-dependent reduction in free 60S and 80S levels (based on absorbance at 260 nm) and a concomitant increase in 40S levels. […] The polysome profiles following NVL disruption in HCT116 cells appear similar to those reported in yeast with RIX7 mutations (37) or in human cells overexpressing catalytic mutants of NVL (38).

Regarding `CC#CCN1C(=O)c2ccc(F)cc2Sc2cc(NC(=O)c3ccc4oc(=O)n(C)c4c3)ccc21` [MM927, N-(10-(But-2-yn-1-yl)-3-fluoro-11-oxo-10,11-dihydrodibenzo[b,f][1,4]thiazepin-7-yl)-3-methyl-2-oxo-2,3-dihydrobenzo[d]oxazole-5-carboxamide], in assay [1], the “p53 and p21 in NVL^R403W tumor” value is “no change in p53 and p21”.
Take `COCCN1C(=O)c2ccccc2Sc2cc(NC(=O)c3ccoc3)ccc21` [MM017]: the “p53 levels in parental HCT116 cells” value in the assay on p53 and p21 is “upregulates p53 levels; also recorded: increase in p53 at 6 hours post treatment; also recorded: dose-dependent increase in the levels of p53”. The “p53 and p21 abundance in NVL^P307T cells” value in the assay with p53 and p21 (NVL^P307T) is recorded as “no changes in the abundance of either protein”. Also, the IC50 with HCT116 NVL^H304R cells stood at 2400 nM; with iHCT116 cells, 460 nM. The “polysome profile, NVL^P307T cells” value in assay [2] (NVL^P307T) is listed as “no changes in polysome profiles”. In addition, the “polysome profile, parental cells” value in assay [2] (parental HCT116) is “time-dependent decrease in the 60S and 80S ribosomal subunits”.
